Measurements from patent US9725683B2, “Surfactants and methods of making and using same” (priority 2013, dated 2017).

Experiments:
[1] = Surface Tension Test Method (Kruss K12 tensiometer, Wilhelmy plate); type: physicochemical
Protocol: Surface Tension Test Method
Surface tension was measured using a K12 process tensiometer (available from Kruss GmbH of Hamburg, Germany) using a Wilhemly plate method with a platinum PL01 plate (available from Krüss GmbH). Forty milliliters of the solution to be tested were placed in a 60 mL glass snap cap jar with an inner diameter of approximately 1.5 inches.

[2] = Solubility of neutral fluorinated surfactants in water at 22° C. (capillary GC of saturated solutions); type: physicochemical; details: pure deionized water
Protocol: Various neutral fluorinated surfactants were tested to determine their solubility in pure deionized water.

[3] = aqueous ammonium hydroxide, mole ratio 2.0, same concentrations
[4] = aqueous TMAH, mole ratio 1.0, equivalent concentrations
[5] = aqueous TMAH, mole ratio 2.0, same concentrations

O=S(=O)(NCCO)C(F)(F)C(F)(F)C(F)(F)C(F)(F)F [A, reference compound]
Surface tension in water compared [1, 3]: roughly equivalent surface tensions

O=S(=O)(N(CCO)CCO)C(F)(F)C(F)(F)C(F)(F)C(F)(F)F [B, reference compound]
% Soluble in water at 22 Deg C. [2]: 0.0592%

CN(CCO)S(=O)(=O)C(F)(F)C(F)(F)C(F)(F)C(F)(F)F [C, reference compound]
% Soluble in water at 22 Deg C. [2]: 0.118%

CC(O)CNS(=O)(=O)C(F)(F)C(F)(F)C(F)(F)C(F)(F)F (centres unmarked) [I, C4F9SO2N(H)CH2CH(CH3)OH]
Surface tension in water compared [1, 3]: roughly equivalent surface tensions | melting point: 80.33 °C

O=S(=O)(NCCOCCO)C(F)(F)C(F)(F)C(F)(F)C(F)(F)F [III, C4F9SO2N(H)CH2CH2OCH2CH2OH]
Surface tension in water compared [1, 4]: significantly lower surface tensions than H-FBSE | Surface tension in water compared [1, 5]: significantly lower surface tension in water than H-FBSE | Surface tension in water compared [1, 3]: lower surface tension in water than the H-FBSE | melting point: 35.7 °C

O=S(=O)(N(CCOCCO)CCOCCO)C(F)(F)C(F)(F)C(F)(F)C(F)(F)F [IV, C4F9SO2N(CH2CH2OCH2CH2OH)2]
% Soluble in water at 22 Deg C. [2]: 0.101%

O=S(=O)(N(CCO)CCOCCO)C(F)(F)C(F)(F)C(F)(F)C(F)(F)F [V, C4F9SO2N(CH2CH2OCH2CH2OH)(CH2CH2OH)]
% Soluble in water at 22 Deg C. [2]: 100 (miscible)^ % | melting point: 45.1 °C

CN(CCOCCO)S(=O)(=O)C(F)(F)C(F)(F)C(F)(F)C(F)(F)F [VI, C4F9SO2N(CH3)(CH2CH2OCH2CH2OH)]
% Soluble in water at 22 Deg C. [2]: 0.232% | melting point: 80.5 °C

O=S(=O)(NCCOCCOCCO)C(F)(F)C(F)(F)C(F)(F)C(F)(F)F [VIII, C4F9SO2NH(CH2CH2OCH2CH2OCH2CH2OH)]
Surface tension in water compared [1, 4]: significantly lower surface tensions than H-FBSE | Surface tension in water compared [1, 5]: significantly lower surface tension in water than H-FBSE | Surface tension in water compared [1, 3]: lowest surface tension in water of all the materials tested
